Data set [1] concerns the target casein kinase 1 epsilon (CK1 epsilon) (Homo sapiens, UniProt P49674). In words: Filter-plate assay of ATP-33P for CK1 epsilon inhibitors (casein phosphorylation). Type of data set: biochemical. The settings on record: inhibition of phosphorylation of casein, ATP-33P filter-plate, ATP 10 μM. On the procedure:
The capacity of the compounds of the invention to inhibit the phosphorylation of casein by casein kinases 1 epsilon and delta may be evaluated according to the procedure described in document US 2005/0 131 012.
Filter-Plate Assay of ATP-^33P for the Screening of CK1 Epsilon Inhibitors:
The effect of the compounds on inhibition of the phosphorylation of casein by the enzyme casein kinase 1 epsilon (CK1 epsilon) is measured, using a casein assay via filtration of ATP-^33P in vitro.
Casein kinase 1 epsilon (0.58 mg/ml) is obtained via fermentation and purification processes performed according to methods that are well known to those skilled in the art, or may also be obtained from Invitrogen Corporation™ (human CK1 epsilon).
The compounds are tested at five different concentrations so as to generate IC50 values, i.e. the concentration at which a compound is capable of inhibiting the enzymatic activity by 50%, or alternatively the percentage of inhibition at a concentration of 10 micromolar.
“U”-bottomed Falcon plates are prepared by placing 5 μL of solutions of the compounds according to the invention at concentrations of 10, 1, 0.1, 0.01 or 0.001 μM in different wells. The solutions of the compounds according to the invention at these various concentrations are prepared by diluting in a test buffer (Tris 50 mM pH 7.5, MgCl2 […], DTT 2 mM and EGTA 1 mM) a stock solution in DMSO at a concentration of 10 mM. Next, 5 μL of dephosphorylated casein are added to a final concentration of 0.2 μg/μL, 20 μL of CK1 epsilon to a final concentration of 3 ng/μL, and 20 μL of ATP-^33P to a final concentration of 0.02 μCi/μL mixed with cold ATP (10 μM final—approximately 2×10^6 CPM per well). The final total test volume per well is equal to 50 μL.
The “U”-bottomed Falcon® test plate mentioned above is vortexed, and then incubated at room temperature for 2 hours. After 2 hours the reaction is stopped by adding an ice-cold solution of 65 μL of cold ATP (2 mM) prepared in test buffer.
100 μL of the reaction mixture are then transferred from the “U”-bottomed Falcon® plate into Millipore® MAPH filter plates, preimpregnated with 25 μL of ice-cold 100% TCA.
The Millipore MAPH filter plates are agitated gently and are left to stand at room temperature for at least 30 minutes to precipitate the proteins.
After 30 minutes, the filter plates are sequentially washed and filtered with 2×150 μL of 20% TCA, 2×150 μL of 10% TCA and 2×150 μL of 5% TCA (6 washes in total per plate/900 μL per well).
The plates are left to dry overnight at room temperature. Next, 40 μL of Microscint-20 Packard® scintillation liquid are added per well and the plates are closed in a leak tight manner. The radiation emitted by each well is then measured for 2 minutes in a TopCount NXT Packard® scintillation counter, in which the values of CPM/well are measured.
The percentage inhibition of the capacity of the enzyme to phosphorylate the substrate (casein) is determined for each concentration of test compound. These inhibition data expressed as percentages are used to calculate the IC50 value for each compound compared with the controls.
The kinetic studies determined the KM value for ATP as being 21 μM in this test system.

Data set [2] addresses T1, human CK1 delta (Homo sapiens, UniProt P48730).
T1 construct: purchased Invitrogen Corporation PV3665
The data set is described as follows: FRET fluorescence test, Z'Lyte kinase assay kit, CK1 delta. The format is biochemical. The settings on record: peptide SER/THR 11 2 μM, ATP 4 times KM. From the text:
The capacity of the compounds of the invention to inhibit the phosphorylation of casein by the casein kinases 1 epsilon and delta may be evaluated using an FRET (Fluorescence Resonance Energy Transfer) fluorescence test with the aid of the “Z′Lyte™ kinase assay kit” (reference PV3670; Invitrogen Corporation™) according to the manufacturer's instructions.
The casein kinases 1 used are obtained from Invitrogen Corporation (human CK1 epsilon PV3500 and human CK1 delta PV3665).
A peptide substrate, labeled at both ends with a fluorophore-donating group (coumarin) and a fluorophore-accepting group (fluorescein) constituting an FRET system is […] in the presence of ATP by casein kinase 1 epsilon or delta in the presence of increasing concentrations of compounds of the invention.
The mixture is treated with a site-specific protease that specifically cleaves the substrate peptide to form two fluorescent fragments having a large fluorescence emission ratio.
The fluorescence observed is thus related to the capacity of the products of the invention to inhibit the phosphorylation of the substrate peptide by casein kinase 1 epsilon or casein kinase 1 delta.
The compounds of the invention are dissolved at different concentrations starting with a 10 mM stock solution in DMSO diluted in a buffer containing 50 mM HEPS, pH 7.5, 1 mM EGTA, 0.01% Brij-35, 10 mM MgCl2 for casein kinase 1 epsilon and supplemented with Trizma Base (50 mM), pH 8.0 and NaN3 (0.01% final) for casein kinase 1 delta.
The phosphorylation of the substrate peptide SER/THR 11 obtained from Invitrogen Corporation™ is performed at a final concentration of 2 μM. The ATP concentration is 4 times the KM, this value being 2 μM for casein kinase 1 epsilon and 4 μM for casein kinase 1 delta.
The emitted fluorescence is measured at wavelengths of 445 and 520 nm (excitation at 400 nm).

In data set [3] the test system is Mper1-luc Rat-1 (P2C4) fibroblasts. The data set is described as follows: Circadian cell assay (mPer1-luciferase reporter, period prolongation). The format is cell-based. The settings on record: effective concentration that induces a 1-hour prolongation of the circadian period. The method, then: Experimental Protocols for Circadian Cell Assay
Mper1-luc Rat-1 (P2C4) fibroblast cultures were prepared by dividing the cultures every 3-4 days (about 10-20% of confluence) on 150 cm^2 degassed polystyrene tissue culture flasks (Falcon® #35-5001) and maintained in growth medium [EMEM (Cellgro #10-010-CV); 10% fetal bovine serum (FBS; Gibco #16000-044); and 50 I.U./mL of penicillin-streptomycin (Cellgro #30-001-CI)] at 37° C. and under 5% CO2.
Cells obtained from Rat-1 fibroblast cultures at 30-50% of confluence as described above were co-transfected with vectors containing the selection marker for resistance to zeocin for a stable transfection and a luciferase reporter gene directed by the promoter mPer-1. After 24 to 48 hours, the cultures were divided on 96-well plates and maintained in growth medium supplemented with 50-100 μg/mL of zeocin (Invitrogen® #45-0430) for 10-14 days. The zeocin-resistant stable transfectants were evaluated for expression of the reporter by adding to the growth medium luciferin 100 μM (Promega® #E1603®) and by assaying the luciferase activity on a TopCount® scintillation counter (Packard model #C384V00). The Rat-1 cell clones expressing both zeocin resistance and luciferase activity directed by mPer1 were serum-shock synchronized with 50% horse serum [HS (Gibco® #16050-122)] and the activity of the circadian reporter was evaluated. The P2C4 clone of fibroblasts Mper1-luc Rat-1 was selected to test the compound.
The Mper1-luc Rat-1 (P2C4) fibroblasts at 40-50% of confluence obtained according to the protocol described above were plated out onto 96-well opaque tissue culture plates (Perkin Elmer® #6005680). The cultures are maintained in growth medium supplemented with 100 μg/mL of zeocin (Invitrogen #45-0430) until they reached 100% of confluence (48-72 hours). The cultures were then synchronized with 100 μL of synchronization medium [EMEM (Cellgro #10-010-CV); 100 I.U./mL of penicillin-streptomycin (Cellgro #30-001-C1); 50% HS (Gibco #16050-122)] for 2 hours at 37° C. and under 5% CO2. After synchronization, the cultures were rinsed with 100 μL of EMEM (Cellgro #10-010-CV) for 10 minutes at room temperature. After rinsing, the medium is replaced with 300 μL of CO2-independent medium [CO2I (Gibco #18045-088); L-glutamine 2 mM (Cellgro #25-005-C1); 100 U.I./mL of penicillin-streptomycin (Cellgro #30-001-C1); luciferin 100 μM (Promega #E 1603)]. […]
The two methods produced a virtually identical period estimation on a range of circadian periods. […] The data were analyzed by adjusting a hyperbolic curve to the data expressed as change of period (y-axis) as a function of the concentration of the test compound (x-axis) in the XLfit™ software and the CE Delta (t+1 h) was interpolated from this curve.
A general note: Reporter assays use an easily measured gene product as a stand-in for the process of interest.

T1 sequence (P48730 whole entry): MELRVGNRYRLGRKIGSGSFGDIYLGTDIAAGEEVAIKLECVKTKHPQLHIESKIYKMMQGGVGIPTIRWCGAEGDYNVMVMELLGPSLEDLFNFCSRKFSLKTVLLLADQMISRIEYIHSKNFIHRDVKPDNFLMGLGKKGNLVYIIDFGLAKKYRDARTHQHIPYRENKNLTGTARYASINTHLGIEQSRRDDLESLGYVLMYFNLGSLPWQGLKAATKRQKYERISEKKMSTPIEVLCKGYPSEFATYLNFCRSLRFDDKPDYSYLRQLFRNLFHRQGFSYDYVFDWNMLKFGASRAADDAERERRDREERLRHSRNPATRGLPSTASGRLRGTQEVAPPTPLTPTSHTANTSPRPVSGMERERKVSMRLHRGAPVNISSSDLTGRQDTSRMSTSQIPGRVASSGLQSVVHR
Sequence of casein kinase 1 epsilon (CK1 epsilon) (P49674 whole entry): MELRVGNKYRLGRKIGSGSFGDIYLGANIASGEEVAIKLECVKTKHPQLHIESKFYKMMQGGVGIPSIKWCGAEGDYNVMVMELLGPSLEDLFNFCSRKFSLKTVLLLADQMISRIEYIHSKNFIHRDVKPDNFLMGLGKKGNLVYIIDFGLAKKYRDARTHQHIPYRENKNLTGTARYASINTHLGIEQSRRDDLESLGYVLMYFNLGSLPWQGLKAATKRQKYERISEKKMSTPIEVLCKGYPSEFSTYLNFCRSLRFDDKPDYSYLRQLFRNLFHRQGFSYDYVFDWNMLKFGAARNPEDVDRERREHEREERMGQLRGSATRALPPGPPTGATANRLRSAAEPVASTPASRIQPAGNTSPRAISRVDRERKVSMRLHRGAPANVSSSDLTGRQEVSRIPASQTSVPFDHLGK

In data set [1], `c1ccc(-c2nc3ccc(N4CCNCC4)nn3c2-c2ccncc2)cc1` [Compound 1, 2-Phenyl-6-piperazin-1-yl-3-pyrid-4-ylimidazo[1,2-b]pyridazine] showed an IC50 of 3 nM.
With `Cc1c(N2CCNCC2)nn2c(-c3ccncc3)c(-c3ccc(F)cc3)nc2c1C` [Compound 3, 2-(4-Fluorophenyl)-7,8-dimethyl-6-piperazin-1-yl-3-pyrid-4-ylimidazo[1,2-b]pyridazine], in data set [1], the IC50 was 1 nM.
In data set [1], `Cc1cc(C)cc(-c2nc3ccc(N4CCNC(C)(C)C4)nn3c2-c2ccnc(N)c2)c1` [Compound 30, 4-[2-(3,5-Dimethylphenyl)-6-(3,3-dimethylpiperazin-1-yl)imidazo[1,2-b]pyridazin-3-yl]pyrid-2-ylamine] returned an IC50 of 60 nM.
Compound `CC1(C)CN(c2ccc3nc(-c4cc(F)cc(F)c4)c(-c4ccncc4)n3n2)CCN1` [Compound 31, 2-(3,5-Difluorophenyl)-6-(3,3-dimethylpiperazin-1-yl)-3-pyrid-4-ylimidazo[1,2-b]pyridazine] had an IC50 in data set [2] of 91 to 93 nM.
Take `CN1CCN(c2ccc3nc(-c4ccc(F)cc4)c(-c4ccncc4)n3n2)CC1` [Compound 50, 2-(4-Fluorophenyl)-6-(4-methylpiperazin-1-yl)-3-pyrid-4-ylimidazo[1,2-b]pyridazine]: the IC50 in data set [2] is 5 nM. For the same compound, in data set [3], the “CE Delta (t + 1 h)” value came out at 28 nM.
In the case of `CC(C)N1CCN(c2ccc3nc(-c4ccc(Cl)cc4)c(-c4ccnc(N)c4)n3n2)CC1` [Compound 81, 4-[2-(4-Chlorophenyl)-6-(4-isopropylpiperazin-1-yl)imidazo[1,2-b]pyridazin-3-yl]pyrid-2-ylamine], the melting point was 236 to 239 °C. For the same compound, the IC50 in data set [2] was in the range of 59 to 110 nM.
`Fc1ccc(-c2nc3ccc(N4CC5CN(C6CC6)CC5C4)nn3c2-c2ccncc2)cc1` (stereo not shown) [Compound 115, 6-(5-Cyclopropylhexahydropyrrolo[3,4-c]pyrrol-2(1H)-yl)-2-(4-fluorophenyl)-3-pyrid-4-ylimidazo[1,2-b]pyridazine] gave a melting point of 204 to 206 °C. The “CE Delta (t + 1 h)” value in data set [3] was found to be 2 nM.
In the case of `CN(C)C1CCN(c2ccc3nc(-c4ccc(F)cc4)c(-c4ccncc4)n3n2)CC1` [Compound 146, {1-[2-(4-Fluorophenyl)-3-pyrid-4-ylimidazo[1,2-b]pyridazin-6-yl]piperid-4-yl}dimethylamine], the melting point is 193 to 195 °C. For the same compound, the “CE Delta (t + 1 h)” value in data set [3] came to 39 nM.
On to `c1ccc(-c2nc3ccc(N4CCC(N5CCCC5)CC4)nn3c2-c2ccncc2)cc1` [Compound 147, 2-Phenyl-3-pyrid-4-yl-6-(4-pyrrolidin-1-ylpiperid-1-yl)-imidazo[1,2-b]pyridazine], for which the IC50 in data set [2] is 50 to 53 nM; in data set [1], 22 to 116 nM.
In turn, “{4-[2-(4-Fluorophenyl)-6-((R)-3-methylpiperazin-1-yl)imidazo[1,2-b]pyridazin-3-yl]pyrid-2-yl}methylamine [Compound 153]” yielded an IC50 in data set [1] of 8 nM. For the same compound, the “CE Delta (t + 1 h)” value in data set [3] is 2 to 9 nM.

Broadly, the IC50 is the concentration that inhibits the measured activity by half. A higher IC50 goes with weaker potency. The melting point is the temperature, or range, at which the solid turns liquid.

The record behind these values is patent US8354405B2, “6-cycloamino-3-(pyrid-4-yl)imidazo[1,2-b]pyridazine derivatives, preparation thereof and therapeutic use thereof” (Sanofi, priority 2007, dated 2013).
